{"source": "patent US8648086B2", "about": "“5,6-bicyclic heteroaryl-containing urea compounds as kinase inhibitors” (Ascepion Pharmaceuticals, Inc., priority 2009, dated 2014)", "key": {"c-Met": {"molecular_target": "T1, c-Met (Homo sapiens, UniProt P08581)", "T1 construct": "endogenous in cells; host or cells: A549 cells", "T1 sequence (P08581 25-1390)": "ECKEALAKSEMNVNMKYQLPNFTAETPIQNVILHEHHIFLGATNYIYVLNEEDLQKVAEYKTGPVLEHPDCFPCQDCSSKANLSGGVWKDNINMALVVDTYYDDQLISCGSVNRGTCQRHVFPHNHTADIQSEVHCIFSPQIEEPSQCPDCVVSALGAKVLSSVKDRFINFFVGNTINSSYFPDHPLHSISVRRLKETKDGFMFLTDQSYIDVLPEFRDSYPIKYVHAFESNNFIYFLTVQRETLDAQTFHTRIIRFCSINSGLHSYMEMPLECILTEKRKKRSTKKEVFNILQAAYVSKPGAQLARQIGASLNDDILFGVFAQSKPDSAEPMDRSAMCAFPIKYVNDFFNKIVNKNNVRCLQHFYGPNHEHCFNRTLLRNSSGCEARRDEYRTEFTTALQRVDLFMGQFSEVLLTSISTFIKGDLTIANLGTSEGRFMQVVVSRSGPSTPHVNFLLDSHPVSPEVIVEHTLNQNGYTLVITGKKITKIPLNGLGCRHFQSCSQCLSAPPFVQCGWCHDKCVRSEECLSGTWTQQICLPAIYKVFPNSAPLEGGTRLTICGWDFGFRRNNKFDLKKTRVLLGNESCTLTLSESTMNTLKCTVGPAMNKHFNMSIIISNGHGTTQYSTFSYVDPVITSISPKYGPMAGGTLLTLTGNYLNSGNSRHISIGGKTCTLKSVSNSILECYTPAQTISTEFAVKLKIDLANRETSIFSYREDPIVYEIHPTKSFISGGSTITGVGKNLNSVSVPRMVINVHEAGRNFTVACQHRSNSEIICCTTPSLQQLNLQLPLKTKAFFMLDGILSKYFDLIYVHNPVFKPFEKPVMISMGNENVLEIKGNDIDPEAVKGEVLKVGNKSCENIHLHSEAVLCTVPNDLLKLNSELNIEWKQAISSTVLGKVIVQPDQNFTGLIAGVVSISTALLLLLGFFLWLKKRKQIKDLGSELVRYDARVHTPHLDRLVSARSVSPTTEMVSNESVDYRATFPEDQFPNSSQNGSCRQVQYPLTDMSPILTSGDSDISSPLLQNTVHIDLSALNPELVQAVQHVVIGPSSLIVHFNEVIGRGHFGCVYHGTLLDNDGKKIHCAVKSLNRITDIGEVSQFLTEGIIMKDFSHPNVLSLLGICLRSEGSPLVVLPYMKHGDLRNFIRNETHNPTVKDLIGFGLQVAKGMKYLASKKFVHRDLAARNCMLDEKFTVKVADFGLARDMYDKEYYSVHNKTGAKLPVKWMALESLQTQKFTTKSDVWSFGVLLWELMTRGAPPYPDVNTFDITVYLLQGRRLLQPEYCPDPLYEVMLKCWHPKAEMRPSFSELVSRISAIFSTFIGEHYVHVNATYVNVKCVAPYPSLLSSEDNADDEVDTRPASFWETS", "assay": "c-Met cell-based assay (phospho-c-Met ELISA, A549 cells)", "conditions": "compound at 100 nM", "in_short": "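Serum-starved A549 cells (NSCLC) pretreated 2 h with compound (0.5 nM to 500 nM), then stimulated 20 min with 20% FBS. Lysates analysed by ELISA for phospho-c-Met and total c-Met with streptavidin-HRP chemiluminescence.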"}, "VEGFR2": {"molecular_target": "T2, VEGFR2 (Homo sapiens, UniProt P35968)", "T2 construct": "expressed in transfected cells; host or cells: CHO cells, pcDNA3.1 plasmid", "T2 sequence (P35968 20-1356, species assumed)": "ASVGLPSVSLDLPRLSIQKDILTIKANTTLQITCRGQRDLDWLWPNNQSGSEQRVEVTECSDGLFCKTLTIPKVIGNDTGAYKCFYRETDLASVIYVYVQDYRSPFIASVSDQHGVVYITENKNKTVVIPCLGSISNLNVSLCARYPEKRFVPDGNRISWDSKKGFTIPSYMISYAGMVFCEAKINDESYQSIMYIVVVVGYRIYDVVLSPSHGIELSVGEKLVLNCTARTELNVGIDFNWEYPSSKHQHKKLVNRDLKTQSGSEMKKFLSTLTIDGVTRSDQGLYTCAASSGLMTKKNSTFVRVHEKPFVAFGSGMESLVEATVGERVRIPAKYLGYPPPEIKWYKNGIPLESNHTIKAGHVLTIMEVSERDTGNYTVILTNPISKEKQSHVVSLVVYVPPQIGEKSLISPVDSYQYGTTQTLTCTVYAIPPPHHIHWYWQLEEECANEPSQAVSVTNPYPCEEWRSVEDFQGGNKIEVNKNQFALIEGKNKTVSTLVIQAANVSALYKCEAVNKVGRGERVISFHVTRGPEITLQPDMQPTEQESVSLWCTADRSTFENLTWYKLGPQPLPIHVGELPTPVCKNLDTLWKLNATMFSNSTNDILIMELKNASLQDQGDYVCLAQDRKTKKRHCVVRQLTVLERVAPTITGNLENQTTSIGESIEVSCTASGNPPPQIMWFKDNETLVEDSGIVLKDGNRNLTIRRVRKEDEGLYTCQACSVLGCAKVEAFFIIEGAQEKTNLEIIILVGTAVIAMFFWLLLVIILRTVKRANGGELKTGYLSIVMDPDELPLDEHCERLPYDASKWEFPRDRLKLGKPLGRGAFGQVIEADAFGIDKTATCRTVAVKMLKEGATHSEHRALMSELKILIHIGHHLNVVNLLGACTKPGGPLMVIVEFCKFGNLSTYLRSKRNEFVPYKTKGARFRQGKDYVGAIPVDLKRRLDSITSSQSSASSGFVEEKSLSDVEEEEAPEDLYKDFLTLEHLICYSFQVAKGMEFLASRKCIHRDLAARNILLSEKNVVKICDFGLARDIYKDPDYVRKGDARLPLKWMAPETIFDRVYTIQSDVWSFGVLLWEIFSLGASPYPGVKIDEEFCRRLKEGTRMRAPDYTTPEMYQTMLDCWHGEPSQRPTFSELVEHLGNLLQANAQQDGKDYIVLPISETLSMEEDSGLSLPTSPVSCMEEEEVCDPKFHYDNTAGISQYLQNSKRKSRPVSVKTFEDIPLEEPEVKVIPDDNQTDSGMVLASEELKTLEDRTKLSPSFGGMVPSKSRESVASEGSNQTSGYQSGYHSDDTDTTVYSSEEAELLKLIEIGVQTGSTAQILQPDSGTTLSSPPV", "assay": "VEGFR2 cell-based assay (phospho-VEGFR2 ELISA, transfected CHO cells)", "conditions": "compound at 100 nM, read-out: % VEGFR2 kinase activity remains", "in_short": "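Serum-starved CHO cells transfected with full-length VEGFR2 treated 2 h with compound (0.5–500 nM), then stimulated with 20% FBS. Lysates analyzed by ELISA for phospho- and total VEGFR2 using streptavidin-HRP chemiluminescence.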"}, "[1]": {"tested_on": "MKN-45 human gastric cancer cells", "assay": "In vivo anti-tumor efficacy, MKN-45 xenograft", "conditions": "Gastric cancer MKN-45, nu/nu Balb/c mice", "method": "(§1) Female (nu/nu) Balb/c athymic mice at 4-6 weeks of age were injected subcutaneously (s.c.) with MDA-MB-231 human breast cancer cells, A549 human non-small cell lung cancer cells, U87-MG human glioblastoma cells, PC-3 human prostate cancer cells, HT-29 human colon cancer, BEL-7404 human hepatocellular carcinoma, or MKN-45 human gastric cancer cells (ATCC, 5×10^6 cells suspended in 100 μl DMEM medium). Treatment was initiated after the tumor mass grown from s.c. implanted tumor cells reached a median volume of 200-400 mm^3. Mice were randomized into groups with three in each group for small-sample efficacy tests such that the median tumor volume is nearly equal among all groups. For large-sample efficacy tests, mice were randomized into groups with thirteen or fourteen in each group. Each group was treated either with compounds (dissolved in 2:1 mixture of PEG400 and 0.01N HCl (v/v)) or without compounds (vehicle only, 2:1 mixture of PEG400 and 0.01N HCl (v/v)) once per day at dose 12.5, 25, 50 or 100 mg/kg by oral gavage. Tumor volumes were assessed at least twice weekly by caliper measurement from the start of treatment. Tumor volume was calculated using the formula ½×L×W^2 (L: length of tumor's long axis, W: length of tumor's short axis). Treatment was applied for at least two weeks or until the tumor volume reaches a size of ˜2500 mm^3 or greater. Mice were humanly sacrificed after the experiment. The efficacy of compounds in reducing tumor growth was assessed by the index Tumor Growth Inhibition (TGI). TGI for a given treatment period was calculated using the group mean tumor volumes according to the formula: TGI=100×(VVehicle—group−VTreatment—group)÷VVehicle—group wherein VVehicle—group represents the mean tumor volume for the group treated with vehicle and VTreatment—group represents the mean tumor volume of the group treated with a compound."}, "[2]": {"tested_on": "PC-3 human prostate cancer cells", "assay": "In vivo anti-tumor efficacy, PC-3 xenograft", "conditions": "Prostate cancer PC-3, nu/nu Balb/c mice, 50 mg/kg oral once per day, n = 2 × 3", "method": "as §1"}}}
{"molecule": "Cl.O=C(Nc1cc(Cl)ccc1F)Nc1cccc2c1ccn2Cc1ccnc2[nH]ccc12", "note": "[Example 56, 1-(2-Fluoro-5-chlorophenyl)-3-[1-(1H-pyrrolo[2,3-b]pyridin-4-ylmethyl)-1H-indol-4-yl]urea hydrochloride]", "values": [{"measurement": "% c-Met kinase activity remains", "setting": "c-Met", "result": "A (the percentage of kinase activity remains is below 70%)"}, {"measurement": "remaining activity at 0.1 µM", "setting": "VEGFR2", "result": "≥ 70", "unit": "%"}, {"measurement": "Tumor Growth Inhibition (TGI)", "setting": "[1]; 12.5 mg/kg oral once per day, n = 6 × 13", "result": "B (the TGI for the compound of this invention is between 0% and 50%)"}, {"measurement": "Tumor Growth Inhibition (TGI)", "setting": "[1]; 25 mg/kg oral once per day, n = 6 × 13", "result": "A (the TGI is greater or equal to 50%)"}, {"measurement": "Tumor Growth Inhibition (TGI)", "setting": "[1]; 50 mg/kg oral once per day, n = 3 × 3", "result": "A (the TGI is greater or equal to 50%)"}, {"measurement": "Tumor Growth Inhibition (TGI)", "setting": "[1]; 50 mg/kg oral once per day, n = 6 × 13", "result": "A (the TGI is greater or equal to 50%)"}, {"measurement": "Tumor Growth Inhibition (TGI)", "setting": "[1]; 100 mg/kg oral once per day, n = 6 × 13", "result": "A (the TGI is greater or equal to 50%)"}, {"measurement": "Tumor Growth Inhibition (TGI)", "setting": "[2]", "result": "A (the TGI is greater or equal to 50%)"}]}
{"molecule": "Cl.O=C(Nc1cccc(C(F)(F)F)c1)Nc1cccc2c1ccn2Cc1ccnc2[nH]ccc12", "note": "[Example 51, 1-(3-Trifluoromethylphenyl)-3-[1-(1H-pyrrolo[2,3-b]pyridin-4-ylmethyl)-1H-indol-4-yl]urea hydrochloride]", "values": [{"measurement": "% c-Met kinase activity remains", "setting": "c-Met", "result": "B (the percentage is greater or equal to 70%)"}, {"measurement": "remaining activity at 0.1 µM", "setting": "VEGFR2", "result": "< 70", "unit": "%"}, {"measurement": "Tumor Growth Inhibition (TGI)", "setting": "[1]; 50 mg/kg oral once per day, n = 2 × 3", "result": "A (the TGI is greater or equal to 50%)"}, {"measurement": "Tumor Growth Inhibition (TGI)", "setting": "[2]", "result": "A (the TGI is greater or equal to 50%)"}]}
